Assays:
IgG = IgG measurement (ELISA) in L444P transgenic mice; format: in vivo
Description: (§1) Isofagomine treatment. Mice were administered isofagomine tartrate in their drinking water, ad libitum, at a concentration of 20 mg/kg.
(§2) Surrogate marker measurement. At the end of 4, 12, or 24 weeks, mice were sacrificed and evaluated for (i) enhancement of GCase enzyme activity in liver, spleen, lung and brain; (ii) chitotriosidase activity; (ii) body, spleen, and liver weight; and (iv) serum IgG, cholesterol, and liver enzyme levels. In addition, chaperone concentration in plasma and in the foregoing tissues will also be determined.
d. IgG measurement: The mouse IgG ELISA quantitation kit (Bethyl Laboratories, Cat # E90-131) was used for determination of IgG concentration in plasma. 96-well plates were coated with 100 μl of the coating buffer (made by dissolving 1 capsule of coating antigen in 100 ml of double deionized water) and incubated for 1 hr at room temperature. The wells were then washed 3 times with 150 μl of wash buffer (50 mM Tris HCl (pH 8.0); 0.14 M NaCl; 0.05% Tween 20) followed by aspiration after each wash). […]
Following incubation, wells were washed 5 times with wash buffer to remove the unbound sample 100 μl of secondary antibody (1:20000 in diluent buffer) was added, followed by incubation again for 1 hour at RT. […] The reaction was stopped by adding 100 μl of 1M phosphoric acid, and the color intensity was measured at 450 nm in the plate reader. […]

GCase = target: T1, GCase (Mus musculus, UniProt P17439, L462P); experiment: GCase activity assay in tissue of L444P transgenic mice; format: in vivo
T1 construct: Liver, brain, spleen, and lung tissue is freshly harvested; from tissue; host or cells: liver, spleen, lung and brain homogenates of L444P mice treated with isofagomine
T1 sequence (P17439 20-515 L462P): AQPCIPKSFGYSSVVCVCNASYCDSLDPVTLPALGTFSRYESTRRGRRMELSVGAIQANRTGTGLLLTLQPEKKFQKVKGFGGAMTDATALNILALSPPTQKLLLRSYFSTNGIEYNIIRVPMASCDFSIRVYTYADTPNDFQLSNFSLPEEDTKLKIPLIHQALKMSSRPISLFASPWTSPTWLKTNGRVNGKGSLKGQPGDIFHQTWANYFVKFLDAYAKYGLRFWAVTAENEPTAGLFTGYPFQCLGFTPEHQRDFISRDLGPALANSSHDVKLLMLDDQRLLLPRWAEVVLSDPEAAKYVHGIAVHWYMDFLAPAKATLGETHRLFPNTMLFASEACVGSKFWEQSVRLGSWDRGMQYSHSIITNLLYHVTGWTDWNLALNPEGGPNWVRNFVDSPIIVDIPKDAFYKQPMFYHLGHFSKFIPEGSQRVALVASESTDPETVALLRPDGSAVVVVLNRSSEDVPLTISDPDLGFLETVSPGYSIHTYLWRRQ
Description: as §1
as §2, with “[…],” for “At the end of 4, 12, or 24 weeks,”
a. GCase activity assays in tissue: Liver, brain, spleen, and lung tissue is freshly harvested (blood washed away with PBS), or thawed from frozen stock. Tissue is minced tissue and homogenized on ice in 200-500 μl McIlvaine (MI) buffer (0.25% sodium taurocholate, 0.1% Triton x-100 in 0.1M citrate and 0.2M phosphate buffer, pH 5.2), and centrifuged at 10,000×g. The supernatant is collected and may be frozen at this step.
About 1-10 μl of supernatant from the tissue homogenates is added to a clear 96-well plate for the Micro BCA Protein Assay (Pierce, cat # 23235) to quantitate the amount of total protein according to the manufacturer's protocol. As a negative control, another 10 μl is added to a black plate, mixed with 10 μl of 2.5 mM CBE (2.7 mg Conduritol B Epoxide in 6.7 ml buffer), an inhibitor of GCase activity, and left at room temperature (RT) for 30 minutes. 50 μl of 3 mM 4-methal Umbelliferyl beta-D-glucoside (4-MU-beta-D-glucoside; made fresh, powder is dissolved in 0.2 ml of DMSO, then q.s. to proper volume with MI buffer), a GCase substrate, is then added, and the black plate is further incubated at 37° C. for 1 hr. After incubation, 10 μl of supernatant is added to a second black plate, mixed with 10 μl of MI buffer and 50 μl 6 mM of GCase substrate 4-MU-beta-D-glucoside, and incubated at 37° C. for 1 hr. The reaction is then stopped by adding 70 μl 0.2 M glycine, pH 10.8. The plate is read in a plate-reader (Victor2 1420 multilabel counter; Wallac) at F460.
Relative […] is determined by the following equation: F460 without CBE−F460 with CBE)/(A550 sample−A550 buffer)
F460 reading is converted into nmole 4-MU based on 4-MU standard curve and A550 is converted into mg of protein based on the protein standard curve. One unit of GCase activity is defined as nmole of 4-MU released in one hour.
Washout study. To determine if and in what time frame the effects of drinking water dosed isofagomine on L444P mice regress after cessation of the treatment, a washout study was performed. […] male 3 month old L444P mice were dosed at about 10 mg/kg/day for 4 weeks with an equal number of mice untreated as a control. Four treated and four untreated mice were sacrificed at the end of 4 weeks, and the remaining animals were not further treated with isofagomine, i.e., they were given normal drinking water, for another two weeks prior to sacrifice and evaluation of the above-described surrogate markers.

[1] = washout study, 10 mg/kg/day, after 4 weeks of treatment
[2] = drinking water, after two weeks of treatment (isofagomine: persisted through 4-12 weeks)

OC[C@H]1CNC[C@@H](O)[C@@H]1O [isofagomine, (3R,4R,5R)-5-(hydroxymethyl)-3,4-piperidinediol]
serum IgG levels (IgG; by 2 weeks of treatment, persisted to 4 and 12 weeks, versus untreated): significant decrease | IgG (IgG; [1]): significantly decreased | GCase activity in brain (GCase; after 2 and 4 weeks of treatment, untreated about 1 U/mg): about 4.5 U/mg | GCase activity in brain (GCase; after 12 weeks of treatment, p<0.001, untreated about 1 U/mg): about 6 U/mg | GCase activity in brain (GCase; [2]): Significant increase | GCase activity in liver (GCase; [2]): Significant increase | GCase activity in lung (GCase; [2]): Significant increase | GCase activity in spleen (GCase; [2]): Significant increase | GCase activity in brain (GCase; [1]): significantly elevated | GCase activity in liver (GCase; [1]): significantly elevated | GCase activity in lung (GCase; [1]): significantly elevated | GCase activity in spleen (GCase; [1]): significantly elevated

— patent US8399525B2, “Treatment of gaucher disease with specific pharmacological chaperones and monitoring treatment using surrogate markers” (Amicus Therapeutics, Inc., priority 2007, dated 2013)
